# Measured values reported in patent publication US20240270801A1, “EPITOPE PEPTIDE OF HUMAN ALPHA-SYNUCLEIN AND PHARMACEUTICAL COMPOSITION INCLUDING SAID PEPTIDE” (Sumitomo Pharma Co., Ltd., priority 2021, published 2024).
# Non-standard residues stand in square brackets, D forms with d. No end group written: not given here. Ahx = NCCCCCC(=O)O
# Assays:
# human αSyn = assay: Antibody-inducing ability in mice: ELISA antibody titer of immune serum with respect to human αSyn; assay type: in vivo, mouse; parameters: key to Antibody titer with respect to human αSyn, relative to control: log titer relative to control conjugate (control = 1); conditions: for Antibody titer with respect to human αSyn (N = 4 − 6, mean ± standard deviation): Example 2, serum 2 weeks after second administration
# Description: (§1) Using the various AJ peptide-human αSyn peptide conjugates produced in Example 1, an antibody-inducing ability with respect to human αSyn in mice was evaluated. The various AJ-human αSyn peptide conjugates (250 μg/mouse) or KLH-DMPVDPDN (25 μg/mouse) in physiological saline were intramuscularly administered to balb/c mice (females, 6 weeks old, CLEA Japan, Inc.) twice at a 2-week interval for immunization using aluminum hydroxide (Alum) (InvivoGen, 50 μg/mouse) as an adjuvant. As a negative control, physiological saline (100 μL/mouse) comprising the same amount of aluminum hydroxide was administered twice. Two weeks after the second administration, serum was recovered to evaluate the antibody titer with respect to human αSyn by ELISA.
# ELISA was performed by the following method. 96-well plates were coated with human αSyn (Sigma) at 0.2 μg/well. After washing with PBST (Phosphate Buffered Saline comprising 0.05% Tween) once, blocking was performed with 3% skim milk (FUJIFILM Wako Pure Chemical Corporation). After washing with PBST three times, diluted serum was added to cause a reaction at room temperature for 1 hour. Furthermore, after washing with PBST three times, Goat anti-mouse IgG-HRP (abcam) was added to cause a reaction at room temperature for 1 hour. After washing with PBST three times, SureBlue TMB Microwell Peroxidase Substrate (KPL) was added to cause a reaction at room temperature for 10 minutes while light shielding. An equal volume of a TMB Stop Solution (KPL) was added to stop the reaction, and the absorbance at 450 nm was measured. ELISA with respect to aggregated human αSyn was performed by coating with the aggregated human αSyn (Stress Marq) at 15 ng/well instead of human αSyn in the above-mentioned method. […]
# The antibody-inducing ability of the produced various human αSyn peptide conjugates with respect to human αSyn and aggregated human αSyn in the mice was evaluated by the method described in Example 2 using the antibody titers with respect to human αSyn and aggregated human αSyn of the mouse immune serum. […] In Table 6, the antibody titer of AJ-p242, AJ-p244, AJ-p347, or AJ-p361 is shown with the antibody titer of AJ-p150 as a control being 1 (logarithm). In addition, the antibody titers of AJ-p229, AJ-p237, and AJ-p298 are shown with the antibody titer of AJ-p54 as a control being 1 (logarithm). […]
# aggregated human αSyn [1] = target: aggregated human αSyn (Homo sapiens, UniProt P37840); assay: Aggregated human αSyn-neutralizing effect of antibody induced in mice: phosphorylation of human αSyn in SH-SY5Y cells; assay type: cell-based; parameters: purchased Stress Marq (StressMarq Biosciences Inc.); conditions: antibody (100 μg/mL) induced in C57BL/6 mice by the vaccine; FIG. 1B, isotype control = 100
# Description: The aggregated human αSyn-neutralizing effect of the antibody induced in the mice by the AJ-human αSyn peptide conjugate (AJ-p54) produced in Example 1 was evaluated. Physiological saline or the AJ-human αSyn peptide conjugate (250 μg/mouse) was intramuscularly administered to C57BL/6 mice (males, 6 weeks old, CLEA Japan, Inc.) four times at a 2-week interval using CFA (DIFCO) as an adjuvant. Furthermore, KLH-DMPVDPDN (25 μg/mouse) was administered using Alum (InvivoGen, 50 μg/mouse) as an adjuvant. Two weeks after the fourth administration, serum was recovered. After recovering the antibodies comprised in the serum by Protein G HP SpinTrap (Cytiva), the human αSyn- and aggregated human αSyn-neutralizing effect was evaluated by a method described below.
# As the human αSyn- and aggregated human αSyn-neutralizing effect, the influence on phosphorylation of human αSyn in SH-SY5Y cells (ATCC) was evaluated. The SH-SY5Y cells were seeded in a 96-well plate at 2×10^4 cells/well and cultured under the conditions of 37° C. and 5% CO2. […] After fixing the cells with a 4% paraformaldehyde/phosphate buffer solution (FUJIFILM Wako Pure Chemical Corporation), phosphorylated human αSyn was stained with a fluorescence-labeled anti-phosphorylated αSyn antibody (Cell Signaling). The amount of phosphorylated human αSyn was evaluated by image analysis using ArrayScan (Thermo Fisher Scientific Inc.). […]
# aggregated human αSyn [2] = assay: Antibody-inducing ability in mice: ELISA antibody titer of immune serum with respect to aggregated human αSyn; assay type: in vivo, mouse; conditions: for Antibody titer with respect to aggregated human αSyn (N = 4 − 6, mean ± standard deviation): Example 2, serum 2 weeks after second administration; for Antibody titer with respect to aggregated human αSyn, relative to control: mice
# Description: as §1
# ELISA was performed by the following method. 96-well plates were coated with human αSyn (Sigma) at 0.2 μg/well. After washing with PBST (Phosphate Buffered Saline comprising 0.05% Tween) once, blocking was performed with 3% skim milk (FUJIFILM Wako Pure Chemical Corporation). After washing with PBST three times, diluted serum was added to cause a reaction at room temperature for 1 hour. Furthermore, after washing with PBST three times, Goat anti-mouse IgG-HRP (abcam) was added to cause a reaction at room temperature for 1 hour. After washing with PBST three times, SureBlue TMB Microwell Peroxidase Substrate (KPL) was added to cause a reaction at room temperature for 10 minutes while light shielding. An equal volume of a TMB Stop Solution (KPL) was added to stop the reaction, and the absorbance at 450 nm was measured. ELISA with respect to aggregated human αSyn was performed by coating with the aggregated human αSyn (Stress Marq) at 15 ng/well instead of human αSyn in the above-mentioned method.
# The antibody-inducing ability of the AJ-human αSyn peptide conjugates (AJ-p54, AJ-p54-KLH, and AJ-DMPVDPDN) produced in Example 1 with respect to human αSyn and aggregated human αSyn in mice was evaluated. Physiological saline or the AJ-human αSyn peptide conjugate (250 μg/mouse) was intramuscularly administered to balb/c mice (females, 6 weeks old, CLEA Japan, Inc.) twice at a 2-week interval using Alum (InvivoGen, 50 μg/mouse) as an adjuvant. Furthermore, KLH-DMPVDPDN (25 μg/mouse) was administered using Alum (InvivoGen, 50 μg/mouse) as an adjuvant. Two weeks after the second administration, serum was recovered to evaluate the antibody titer by ELISA. ELISA was performed by the method described in Example 2.
# The antibody-inducing ability of the produced various human αSyn peptide conjugates with respect to human αSyn and aggregated human αSyn in the mice was evaluated by the method described in Example 2 using the antibody titers with respect to human αSyn and aggregated human αSyn of the mouse immune serum. […] In Table 6, the antibody titer of AJ-p242, AJ-p244, AJ-p347, or AJ-p361 is shown with the antibody titer of AJ-p150 as a control being 1 (logarithm). In addition, the antibody titers of AJ-p229, AJ-p237, and AJ-p298 are shown with the antibody titer of AJ-p54 as a control being 1 (logarithm).
# The antibody-inducing ability of the AJ-human αSyn peptide conjugates with a modified linker with respect to human αSyn and aggregated human αSyn in the mice was evaluated using the antibody titers with respect to human αSyn and aggregated human αSyn of the mouse immune serum. […] In Table 8, the antibody titers of the AJ-human αSyn peptide conjugates with various modified linkers comprising p54 are shown with the antibody titer of AJ-p54 as a control being 1 (logarithm). In addition, the antibody titers of the AJ-human αSyn peptide conjugates with various modified linkers comprising p150 are shown with the antibody titer of AJ-p150 as a control being 1 (logarithm).
# aggregated human αSyn [3] = assay: Antibody-inducing ability in cynomolgus monkeys: ELISA antibody titer with respect to aggregated human αSyn; assay type: in vivo; conditions: i.m. three times at 2-week interval, Alum; AJ conjugates 2,000 μg/monkey, KLH-DMPVDPDN 75 μg/monkey; FIG. 4B
# Description: The antibody-inducing ability of the AJ-human αSyn peptide conjugate with respect to human αSyn and aggregated human αSyn in cynomolgus monkeys was evaluated. The AJ-human αSyn peptide conjugates (AJ-p54, AJ-p150, AJ-p283, AJ-p142, and AJ-p273) (2,000 μg/monkey) and KLH-DMPVDPDN (75 μg/monkey) were intramuscularly administered to cynomolgus monkeys (males, 3 to 7 years old, SNBL, Ltd.) three times at a 2-week interval using Alum (InvivoGen, 200 μg/monkey) as an adjuvant. Blood was collected before administration and 4, 6, 8, and 10 weeks after the first administration to recover the serum. ELISA was performed by the following method.
# 96-well plates were coated with human αSyn (Sigma-Aldrich) or aggregated human αSyn (StressMarq Biosciences Inc.) at 0.2 μg/well or 15 ng/well. After washing with PBST once, blocking was performed with 3% skim milk (FUJIFILM Wako Pure Chemical Corporation). After washing with PBST three times, diluted serum was added to cause a reaction at room temperature for 1 hour. Furthermore, after washing with PBST three times, Goat anti-Monkey IgG-HRP (Bio-Rad Laboratories, Inc.) was added to cause a reaction at room temperature for 1 hour. […] An equal volume of a TMB Stop Solution (KPL) was added to stop the reaction, and the absorbance at 450 nm was measured.
# [4] = balb/c mice, i.m. twice at 2-week interval, Alum, AJ conjugates 250 μg/mouse, KLH-DMPVDPDN 25 μg/mouse
# [5] = Example 4, balb/c mice, i.m. twice at 2-week interval, Alum, AJ conjugates 250 μg/mouse, KLH-DMPVDPDN 25 μg/mouse
Sequence,"Antibody titer with respect to human αSyn (N = 4 − 6, mean ± standard deviation) (human αSyn; [4])","Induction of the antibody to human αSyn (in words) (human αSyn; Example 3, mice)","Antibody titer (N = 4 − 6, mean ± standard deviation) with respect to human αSyn (human αSyn; Example 3, mice, same manner as Example 2)","Induction of the antibody to human αSyn (in words) (human αSyn; Example 4, balb/c mice)",Antibody titer with respect to human αSyn (mean ± standard deviation) (human αSyn; [5]),"Antibody titer with respect to human αSyn, relative to control (human αSyn; Example 9, mice, N = 4, titer of AJ-p150 or AJ-p54 as control being 1 (logarithm))","Antibody titer with respect to human αSyn, relative to control (human αSyn; Example 10, modified linker, mice, titer of AJ-p54 or AJ-p150 as control being 1 (logarithm))",Phosphorylation of human αSyn in SH-SY5Y cells to which aggregated human αSyn was added (aggregated human αSyn [1]),"Antibody titer with respect to aggregated human αSyn (N = 4 − 6, mean ± standard deviation) (aggregated human αSyn [2]; [4])","Induction of the antibody to aggregated human αSyn (in words) (aggregated human αSyn [2]; Example 4, balb/c mice)",Antibody titer with respect to aggregated human αSyn (mean ± standard deviation) (aggregated human αSyn [2]; [5]),"Antibody titer with respect to aggregated human αSyn, relative to control (aggregated human αSyn [2]; Example 9, N = 4, titer of AJ-p150 or AJ-p54 as control being 1 (logarithm))","Antibody titer with respect to aggregated human αSyn, relative to control (aggregated human αSyn [2]; Example 10, modified linker, titer of AJ-p54 or AJ-p150 as control being 1 (logarithm))",Induction of the antibody to aggregated human αSyn in cynomolgus monkeys (aggregated human αSyn [3])
"ELKLIFLHRLKRLRKRLKRKXKKDQLGKNE (ELKLIFLHRLKRLRKRLKRK[Ahx]KKDQLGKNE) [AJ-p54, AJ peptide linked to p54 via ε-Acp (X)]",4096 ± 2896,induced to the same extent,1434 ± 1510,induced,1434 ± 1510,1,1,inhibited,768 ± 862,induced,768 ± 296,1,1,
ELKLIFLHRLKRLRKRLKRKXKKTQLGKND (ELKLIFLHRLKRLRKRLKRK[Ahx]KKTQLGKND) [AJ-p273],3328 ± 3278,,,,,,,,704 ± 896,,,,,not induced
